Our source for the Activity and DC50 values is ChEMBL document CHEMBL5038618, “Discovery of PT-65 as a highly potent and selective Proteolysis-targeting chimera degrader of GSK3 for treating Alzheimer's disease” (Eur J Med Chem, 2021).

Each structure is given as a SMILES string.

Format in all cases: cell-based
For experiment [1], the target named is T1, Protein cereblon/Glycogen synthase kinase-3 beta (Homo sapiens, UniProt P49841+Q96SW2). In words: Protac activity at CRBN/GSK3beta in human SH-SY5Y cells assessed as induction of GSK3beta degradation at 10 uM measured after 24 hrs.
Target sequence in this assay (P49841 whole entry, looked up): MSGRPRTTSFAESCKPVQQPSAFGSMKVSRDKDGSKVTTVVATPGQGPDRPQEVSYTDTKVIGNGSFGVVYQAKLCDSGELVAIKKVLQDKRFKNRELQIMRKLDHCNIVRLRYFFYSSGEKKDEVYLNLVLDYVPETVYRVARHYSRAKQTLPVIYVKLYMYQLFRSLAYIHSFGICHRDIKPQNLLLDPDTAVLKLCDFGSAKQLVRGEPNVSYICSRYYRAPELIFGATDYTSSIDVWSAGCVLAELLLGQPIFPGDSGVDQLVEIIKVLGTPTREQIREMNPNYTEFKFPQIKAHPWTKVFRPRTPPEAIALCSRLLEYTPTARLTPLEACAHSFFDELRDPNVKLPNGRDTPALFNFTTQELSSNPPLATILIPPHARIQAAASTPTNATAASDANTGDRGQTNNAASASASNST
Target sequence in this assay (Q96SW2 whole entry, looked up): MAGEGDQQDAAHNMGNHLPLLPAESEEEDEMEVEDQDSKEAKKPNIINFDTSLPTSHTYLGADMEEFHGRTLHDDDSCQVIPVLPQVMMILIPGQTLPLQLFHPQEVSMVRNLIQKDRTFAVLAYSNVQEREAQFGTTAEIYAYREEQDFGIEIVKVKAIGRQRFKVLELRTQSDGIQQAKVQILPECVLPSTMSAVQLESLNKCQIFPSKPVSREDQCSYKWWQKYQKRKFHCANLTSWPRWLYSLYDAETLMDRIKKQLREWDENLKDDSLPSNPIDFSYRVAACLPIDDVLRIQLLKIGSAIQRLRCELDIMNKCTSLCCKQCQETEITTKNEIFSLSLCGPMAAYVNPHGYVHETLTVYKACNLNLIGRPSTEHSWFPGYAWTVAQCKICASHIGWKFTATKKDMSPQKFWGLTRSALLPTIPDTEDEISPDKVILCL
Experiment [2] concerns the target T2, Protein cereblon/Glycogen synthase kinase-3 alpha (Homo sapiens, UniProt P49840+Q96SW2). The experiment is described as follows: Protac activity at CRBN/GSK3alpha in human SH-SY5Y cells assessed as induction of GSK3alpha protein degradation at 10 uM measured after 24 hrs.
Target sequence in this assay (P49840 2-483 limits assumed): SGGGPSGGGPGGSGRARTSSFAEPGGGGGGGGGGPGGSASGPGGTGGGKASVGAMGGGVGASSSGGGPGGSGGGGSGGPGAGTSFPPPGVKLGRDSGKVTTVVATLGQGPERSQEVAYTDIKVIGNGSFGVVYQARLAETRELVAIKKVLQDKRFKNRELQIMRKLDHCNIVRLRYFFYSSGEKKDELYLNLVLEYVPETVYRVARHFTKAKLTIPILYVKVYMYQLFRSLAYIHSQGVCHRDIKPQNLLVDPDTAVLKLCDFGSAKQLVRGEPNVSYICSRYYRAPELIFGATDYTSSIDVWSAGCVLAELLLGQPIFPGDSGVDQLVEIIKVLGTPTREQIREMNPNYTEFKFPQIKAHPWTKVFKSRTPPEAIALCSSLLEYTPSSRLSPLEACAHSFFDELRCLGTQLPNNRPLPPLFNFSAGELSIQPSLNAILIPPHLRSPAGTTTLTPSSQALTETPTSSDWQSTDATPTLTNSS
Target sequence in this assay (Q96SW2 whole entry partner): as the sequence (Q96SW2 whole entry, looked up) above
The target in experiment [3] is T2, Protein cereblon/Glycogen synthase kinase-3 alpha. The experiment is described as follows: Protac activity at CRBN/GSK3alpha in human SH-SY5Y cells assessed as induction of GSK3alpha protein degradation at 1 uM measured after 24 hrs.
Target sequence in this assay (P49840 2-483 limits assumed): as the sequence (P49840 2-483 limits assumed) above
Target sequence in this assay (Q96SW2 whole entry partner): as the sequence (Q96SW2 whole entry, looked up) above
For experiment [4], the target named is T1, Protein cereblon/Glycogen synthase kinase-3 beta. The experiment is described as follows: Protac activity at CRBN/GSK3beta in human SH-SY5Y cells assessed as induction of GSK3beta degradation at 1 uM measured after 24 hrs.
Target sequence in this assay (P49841 whole entry, looked up): as the sequence (P49841 whole entry, looked up) above
Target sequence in this assay (Q96SW2 whole entry, looked up): as the sequence (Q96SW2 whole entry, looked up) above
Experiment [5] has the same target. In words: Protac activity at CRBN/GSK3beta in human SH-SY5Y cells assessed as induction of GSK3beta degradation at 0.1 uM measured after 24 hrs.
Target sequence in this assay (P49841 whole entry, looked up): as the sequence (P49841 whole entry, looked up) above
Target sequence in this assay (Q96SW2 whole entry, looked up): as the sequence (Q96SW2 whole entry, looked up) above
The target in experiment [6] is T2, Protein cereblon/Glycogen synthase kinase-3 alpha. The experiment is described as follows: Protac activity at CRBN/GSK3alpha in human SH-SY5Y cells assessed as induction of GSK3alpha degradation at 0.1 uM measured after 24 hrs.
Target sequence in this assay (P49840 2-483 limits assumed): as the sequence (P49840 2-483 limits assumed) above
Target sequence in this assay (Q96SW2 whole entry partner): as the sequence (Q96SW2 whole entry, looked up) above
Experiment [7] shares this target. The experiment is described as follows: Protac activity at CRBN/GSK3alpha in human SH-SY5Y cells assessed as induction of GSK3alpha protein degradation measured after 24 hrs.
Target sequence in this assay (P49840 whole entry): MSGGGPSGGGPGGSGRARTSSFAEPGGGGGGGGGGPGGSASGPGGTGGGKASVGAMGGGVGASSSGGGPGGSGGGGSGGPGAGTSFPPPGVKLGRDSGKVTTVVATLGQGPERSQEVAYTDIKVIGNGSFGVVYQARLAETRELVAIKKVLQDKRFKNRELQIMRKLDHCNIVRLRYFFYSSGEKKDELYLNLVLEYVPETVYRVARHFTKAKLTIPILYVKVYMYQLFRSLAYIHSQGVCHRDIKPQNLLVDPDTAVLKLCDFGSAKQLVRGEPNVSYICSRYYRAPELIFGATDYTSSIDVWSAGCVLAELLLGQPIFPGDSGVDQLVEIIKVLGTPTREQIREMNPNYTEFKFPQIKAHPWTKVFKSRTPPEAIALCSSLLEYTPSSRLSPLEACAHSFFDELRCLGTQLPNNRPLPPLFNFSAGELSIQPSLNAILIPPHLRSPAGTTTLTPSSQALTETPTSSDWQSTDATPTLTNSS
Target sequence in this assay (Q96SW2 whole entry): as the sequence (Q96SW2 whole entry, looked up) above
Experiment [8] has as its target T1, Protein cereblon/Glycogen synthase kinase-3 beta. The experiment is described as follows: Protac activity at CRBN/GSK3beta in human SH-SY5Y cells assessed as induction of GSK3beta degradation measured after 24 hrs.
Target sequence in this assay (P49841 whole entry): as the sequence (P49841 whole entry, looked up) above
Target sequence in this assay (Q96SW2 whole entry): as the sequence (Q96SW2 whole entry, looked up) above

`COc1ccc(-c2ocnc2C(=O)NCCCn2cc(CCCCC(=O)N[C@@H](C(=O)N3C[C@H](O)C[C@H]3C(=O)NCc3ccc(-c4scnc4C)cc3)C(C)(C)C)nn2)cc1Cl`: the Activity in experiment [1], in experiment [2], in experiment [3] and in experiment [4] was < 5% each time.
For `COc1ccc(-c2ocnc2C(=O)NCCCn2cc(COCCOCCOCCOc3cccc4c3CN(C3CCC(=O)NC3=O)C4=O)nn2)cc1Cl` (stereo unspecified), the Activity in experiment [1] was 37.3%; in experiment [2], 76.4%; in experiment [3], 38.7%; in experiment [4], 14.5%.
On to `Nc1ncc(-c2ccc(S(=O)(=O)N3CCN(CCc4cn(CCOCCOCCOCCNc5cccc6c5C(=O)N(C5CCC(=O)NC5=O)C6=O)nn4)CC3)cc2)nc1C(=O)Nc1cccnc1` (stereo unspecified), for which the Activity was determined as 51.6% in experiment [5], 90.7% in experiment [3], 79.1% in experiment [4] and 65% in experiment [6].
On to `COc1ccc(-c2ocnc2C(=O)NCCCc2cn(CCOCCOCCOCCOCCNc3cccc4c3C(=O)N(C3CCC(=O)NC3=O)C4=O)nn2)cc1Cl` (stereo unspecified), for which the figures for the Activity in experiment [3] and in experiment [4] were 69.5% and 49.2%, respectively.
For the compound `Nc1ncc(-c2ccc(S(=O)(=O)N3CCN(Cc4cn(CCOCCOCCOCCNC(=O)CNc5cccc6c5CN(C5CCC(=O)NC5=O)C6=O)nn4)CC3)cc2)nc1C(=O)Nc1cccnc1` (stereo unspecified), the Activity in experiment [3] and in experiment [4] was < 5% throughout.
On to `COc1ccc(-c2ocnc2C(=O)NCCCc2cn(CCOCCOCCOCCOCCOCCOCCNc3cccc4c3C(=O)N(C3CCC(=O)NC3=O)C4=O)nn2)cc1I` (stereo unspecified), for which the Activity in experiment [3] was 25.2%; in experiment [4], 50.1%.
For `Nc1ncc(-c2ccc(S(=O)(=O)N3CCN(CCc4cn(CCOCCOCCOCCOCCNc5cccc6c5C(=O)N(C5CCC(=O)NC5=O)C6=O)nn4)CC3)cc2)nc1C(=O)Nc1cccnc1` (stereo unspecified), the Activity in experiment [5] came to 55.9%; in experiment [3], 91.8%; in experiment [4] it was 83.1%; in experiment [6], 63.8%.
`COc1ccc(-c2ocnc2C(=O)NCCCc2cn(CCOCCOCCOCCNC(=O)CNc3cccc4c3CN(C3CCC(=O)NC3=O)C4=O)nn2)cc1Cl` (stereo unspecified): the Activity in experiment [1] was 35.8%; in experiment [2] it was < 5%; in experiment [3] it was < 5%; in experiment [4], < 5%.
For `Nc1ncc(-c2ccc(S(=O)(=O)N3CCN(CCCCc4cn(CCOCCOCCOCCNc5cccc6c5C(=O)N(C5CCC(=O)NC5=O)C6=O)nn4)CC3)cc2)nc1C(=O)Nc1cccnc1` (stereo unspecified), the Activity in experiment [5] was 54.6%; in experiment [3], 93.8%; in experiment [4], 89.7%; in experiment [6], 69.3%.
`Nc1ncc(-c2ccc(S(=O)(=O)N3CCN(Cc4cn(CCOCCOCCOCCNc5cccc6c5C(=O)N(C5CCC(=O)NC5=O)C6=O)nn4)CC3)cc2)nc1C(=O)Nc1cccnc1` (stereo unspecified): the Activity amounted to 80.2% in experiment [1]; 29.9% in experiment [5]; 86.4% in experiment [2]; 75.6% in experiment [3]; 46.6% in experiment [4]; 45.4% in experiment [6].
As to `COc1ccc(-c2ocnc2C(=O)NCCCc2cn(CCOCCOCCOCCOCCOCCNc3cccc4c3C(=O)N(C3CCC(=O)NC3=O)C4=O)nn2)cc1I` (stereo unspecified), the Activity in experiment [3] stood at 55.6%; in experiment [4] it was 56.5%.
Take `Nc1ncc(-c2ccc(S(=O)(=O)N3CCN(CCc4cn(CCOCCOCCOCCOCCOCCNc5cccc6c5C(=O)N(C5CCC(=O)NC5=O)C6=O)nn4)CC3)cc2)nc1C(=O)Nc1cccnc1` (stereo unspecified): the Activity in experiment [5] was 61.6%; in experiment [3], 87.8%; in experiment [4], 81.3%; in experiment [6] it was 68.1%.
Take `COc1ccc(-c2ocnc2C(=O)NCCCn2cc(COCCOCCOCCOCC(=O)N[C@@H](C(=O)N3C[C@H](O)C[C@H]3C(=O)NCc3ccc(-c4scnc4C)cc3)C(C)(C)C)nn2)cc1Cl`: the Activity in experiment [1], in experiment [2], in experiment [3] and in experiment [4] was < 5% each time.
As for `COc1ccc(-c2ocnc2C(=O)NCCCc2cn(CCOCCOCCOCCOCCOCCOCCNc3cccc4c3C(=O)N(C3CCC(=O)NC3=O)C4=O)nn2)cc1Cl` (stereo unspecified), the Activity in experiment [3] was 60.7%; in experiment [4], 88.8%.
As to `Nc1ncc(-c2ccc(S(=O)(=O)N3CCN(Cc4cn(CCOCCOCCOCCOCCNc5cccc6c5C(=O)N(C5CCC(=O)NC5=O)C6=O)nn4)CC3)cc2)nc1C(=O)Nc1cccnc1` (stereo unspecified), the Activity in experiment [5] amounted to 25.7%; in experiment [3] it was 79.5%; in experiment [4], 65%; in experiment [6] it was 42%.
With `COc1ccc(-c2ocnc2C(=O)NCCCc2cn(CCOCCOCCOCCOCCNc3cccc4c3C(=O)N(C3CCC(=O)NC3=O)C4=O)nn2)cc1I` (stereo unspecified), the Activity came to 46.5% in experiment [3] and 25.9% in experiment [4].
What is called DC50 is the concentration at which degradation of the target reaches its halfway point. With `Nc1ncc(-c2ccc(S(=O)(=O)N3CCN(CCCCc4cn(CCOCCOCCOCCOCCNc5cccc6c5C(=O)N(C5CCC(=O)NC5=O)C6=O)nn4)CC3)cc2)nc1C(=O)Nc1cccnc1` (stereo unspecified), the Activity in experiment [5] stood at 63.7%; in experiment [3], 90.3%; in experiment [4], 84.4%; in experiment [6], 68.5%. The DC50 in experiment [7] came to 38.2 nM; in experiment [8], 110 nM.
In the case of `COc1ccc(-c2ocnc2C(=O)NCCCc2cn(CCOCCOCCOCCOCCOCCNc3cccc4c3C(=O)N(C3CCC(=O)NC3=O)C4=O)nn2)cc1Cl` (stereo unspecified), the Activity in experiment [1] stood at 85.2%; in experiment [2], 84.6%; in experiment [3] it was 56.2%; in experiment [4] it was 54.6%.
With `Nc1ncc(-c2ccc(S(=O)(=O)N3CCN(CCc4cn(CCOCCOCCNc5cccc6c5C(=O)N(C5CCC(=O)NC5=O)C6=O)nn4)CC3)cc2)nc1C(=O)Nc1cccnc1` (stereo unspecified), the Activity in experiment [5] stood at 41.9%; in experiment [3], 95.2%; in experiment [4] it was 79.5%; in experiment [6], 61.1%.
Turning to `COc1ccc(-c2ocnc2C(=O)NCCCc2cn(CCOCCOCCNc3cccc4c3C(=O)N(C3CCC(=O)NC3=O)C4=O)nn2)cc1Cl` (stereo unspecified), the values for the Activity in experiment [3] and in experiment [4] were 43.8% and 28.2%, respectively.
With `Nc1ncc(-c2ccc(S(=O)(=O)N3CCN(Cc4cn(CCOCCOCCOCCOCCOCCNc5cccc6c5C(=O)N(C5CCC(=O)NC5=O)C6=O)nn4)CC3)cc2)nc1C(=O)Nc1cccnc1` (stereo unspecified), the Activity in experiment [1] came out at 74.5%; in experiment [5], 28.9%; in experiment [2] it was 65.9%; in experiment [3], 77.2%; in experiment [4] it was 63.8%; in experiment [6] it was 47.4%.
Take `Nc1ncc(-c2ccc(S(=O)(=O)N3CCN(CCc4cn(CCOCCOCCOCCOCCOCCOCCNc5cccc6c5C(=O)N(C5CCC(=O)NC5=O)C6=O)nn4)CC3)cc2)nc1C(=O)Nc1cccnc1` (stereo unspecified): the Activity came to 55.9% in experiment [5], 93.9% in experiment [3], 86% in experiment [4] and 66.3% in experiment [6].
Regarding `COc1ccc(-c2ocnc2C(=O)NCCCc2cn(CCOCCOCCOCCNc3cccc4c3C(=O)N(C3CCC(=O)NC3=O)C4=O)nn2)cc1I` (stereo unspecified), the values for the Activity in experiment [3] and in experiment [4] were 60.9% and 22.8%, respectively.
For `COc1ccc(-c2ocnc2C(=O)NCCCc2cn(CCOCCOCCOCCNc3cccc4c3C(=O)N(C3CCC(=O)NC3=O)C4=O)nn2)cc1Cl` (stereo unspecified), the Activity in experiment [1] stood at 73.3%; in experiment [2] it was 89.9%; in experiment [3], 62.4%; in experiment [4], 36.8%.
Regarding `Nc1ncc(-c2ccc(S(=O)(=O)N3CCN(Cc4cn(CCOCCOCCNc5cccc6c5C(=O)N(C5CCC(=O)NC5=O)C6=O)nn4)CC3)cc2)nc1C(=O)Nc1cccnc1` (stereo unspecified), the Activity in experiment [5] is 30.5%; in experiment [3] it was 68.9%; in experiment [4], 39.6%; in experiment [6], 46.9%.
For the compound `COc1ccc(-c2ocnc2C(=O)NCCCc2cn(CCOCCOCCNc3cccc4c3C(=O)N(C3CCC(=O)NC3=O)C4=O)nn2)cc1I` (stereo unspecified), the figures for the Activity in experiment [3] and in experiment [4] were 46.1% and 25.5%, respectively.
Turning to `Nc1ncc(-c2ccc(S(=O)(=O)N3CCN(CCCCc4cn(CCOCCOCCOCCOCCOCCOCCNc5cccc6c5C(=O)N(C5CCC(=O)NC5=O)C6=O)nn4)CC3)cc2)nc1C(=O)Nc1cccnc1` (stereo unspecified), the Activity is 56.7% in experiment [5], 91.4% in experiment [3], 87% in experiment [4] and 71.9% in experiment [6]. Further, the DC50 is 40.4 nM in experiment [7] and 66.6 nM in experiment [8].
With `Nc1ncc(-c2ccc(S(=O)(=O)N3CCN(CCCCc4cn(CCOCCOCCNc5cccc6c5C(=O)N(C5CCC(=O)NC5=O)C6=O)nn4)CC3)cc2)nc1C(=O)Nc1cccnc1` (stereo unspecified), the Activity in experiment [5] came out at 38.2%; in experiment [3], 95.1%; in experiment [4], 88.3%; in experiment [6], 70.9%.
For `Nc1ncc(-c2ccc(S(=O)(=O)N3CCN(Cc4cn(CCOCCOCCOCCOCCOCCOCCNc5cccc6c5C(=O)N(C5CCC(=O)NC5=O)C6=O)nn4)CC3)cc2)nc1C(=O)Nc1cccnc1` (stereo unspecified), in that order: 15.2%, 75.4%, 61.3% and 29.7%.
